According to ChEMBL document CHEMBL2176951, “Molecular mechanisms of acquired proteasome inhibitor resistance” (J Med Chem, 2012):

What was measured:
Homo sapiens = species: Homo sapiens; assay: P-gp-mediated drug resistance in human CEM/VLB cells relative to control; assay type: cell-based
THP-1 [1] = assay: Effect on PSMB5 mRNA expression in human THP1 cells at 30 nM relative to control; assay type: functional
THP-1 [2] = assay: Effect on 20S proteasome subunit beta5 expression in human THP1 cells at 50 nM relative to control; assay type: functional
[3] = Effect on PSMB5 mRNA expression in human Jurkat-B cells expressing PSMB5 C323T mutant at 1000 nM relative to control; assay type: functional
RPMI-8226 [4] = assay: Effect on PSMB5 mRNA expression in human RPMI8226 cells at 7 nM relative to control; assay type: functional
THP-1 [5] = assay: Effect on PSMB5 mRNA expression in human THP1 cells at 50 nM relative to control; assay type: functional
SW1573 = assay: Effect on 20S proteasome subunit beta5 expression in human SW1573 cells at 150 nM relative to control; assay type: functional; details: pooled result: one value given for 7 cell lines, strains, targets or settings
THP-1 [6] = assay: Effect on PSMB5 mRNA expression in human THP1 cells at 100 nM relative to control; assay type: functional
THP-1 [7] = assay: Effect on 20S proteasome subunit beta5 expression in human THP1 cells at 200 nM relative to control; assay type: functional
THP-1 [8] = assay: Effect on 20S proteasome subunit beta5 expression in human THP1 cells at 100 nM relative to control; assay type: functional
RPMI-8226 [9] = assay: Effect on PSMB5 mRNA expression in human RPMI8226 cells at 100 nM relative to control; assay type: functional
HT-29 [10] = assay: Effect on 20S proteasome subunit beta5 expression in human HT-29 cells at 200 nM relative to control; assay type: functional
THP-1 [11] = assay: Effect on 20S proteasome subunit beta5 expression in human THP1 cells at 30 nM relative to control; assay type: functional
HT-29 [12] = assay: Effect on 20S proteasome subunit beta5 expression in human HT-29 cells at 100 nM relative to control; assay type: functional
THP-1 [13] = assay: Effect on PSMB5 mRNA expression in human THP1 cells at 200 nM relative to control; assay type: functional
[14] = Effect on PSMB5 mRNA expression in human Jurkat-B cells expressing PSMB5 G322A mutant at 1000 nM relative to control; assay type: functional
RPMI-8226 [15] = assay: Resistance factor, ratio of IC50 for 100 nM bortezonib-resistant human RPMI8226 cells harboring proteosome subunit beta5 A49T mutant to IC50 for wild type human RPMI8226 cells; assay type: functional
[16] = target: Proteasome Macropain subunit (Homo sapiens) (UniProt P49721); assay: Ratio of Kinact to Ki for human 20S proteasome subunit beta2
Proteasome Macropain subunit (Homo sapiens), sequence (P49721 whole entry): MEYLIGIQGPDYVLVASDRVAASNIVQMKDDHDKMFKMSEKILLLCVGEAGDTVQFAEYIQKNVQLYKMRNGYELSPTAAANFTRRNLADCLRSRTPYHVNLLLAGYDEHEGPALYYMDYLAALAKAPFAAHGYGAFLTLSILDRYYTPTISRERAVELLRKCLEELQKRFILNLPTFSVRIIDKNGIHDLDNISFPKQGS

[17] = target: T1, Proteasome component C5 (Homo sapiens) (UniProt P20618); assay: Ratio of Kinact to Ki for human 20S proteasome subunit beta1
T1 sequence (whole entry): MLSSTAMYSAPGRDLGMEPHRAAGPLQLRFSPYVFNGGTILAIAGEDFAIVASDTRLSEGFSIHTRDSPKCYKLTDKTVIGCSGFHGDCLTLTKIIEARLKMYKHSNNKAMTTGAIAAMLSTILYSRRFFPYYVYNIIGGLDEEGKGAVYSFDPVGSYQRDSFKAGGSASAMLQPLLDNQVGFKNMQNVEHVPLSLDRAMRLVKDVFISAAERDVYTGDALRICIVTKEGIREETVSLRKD

[18] = target: T2, Proteasome Macropain subunit MB1 (Homo sapiens) (UniProt P28074); assay: Ratio of Kinact to Ki for human 20S proteasome subunit beta5
T2 sequence (whole entry): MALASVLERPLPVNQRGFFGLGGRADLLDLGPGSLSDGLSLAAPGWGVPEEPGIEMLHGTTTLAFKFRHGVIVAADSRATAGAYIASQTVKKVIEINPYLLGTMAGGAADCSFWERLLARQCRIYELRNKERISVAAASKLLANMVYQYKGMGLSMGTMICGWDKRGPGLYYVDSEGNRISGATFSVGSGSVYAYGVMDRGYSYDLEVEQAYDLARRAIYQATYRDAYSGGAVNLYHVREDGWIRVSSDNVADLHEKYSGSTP

[19] = target: T3, Proteasome Macropain subunit MB1 (Homo sapiens, UniProt P28074); assay: Reversible inhibition of human erythrocyte derived 20S proteasome subunit beta5 after 30 mins by fluorogenic assay
T3 sequence (P28074 whole entry): T2 sequence (whole entry)

In the case of `COC[C@H](NC(=O)c1cnc(C)s1)C(=O)N[C@@H](COC)C(=O)N[C@@H](Cc1ccccc1)C(=O)[C@@]1(C)CO1`, the fold change (FC) (Homo sapiens) is reported as 23.

For `CC(C)C[C@H](NC(=O)[C@H](Cc1ccccc1)NC(=O)c1cnccn1)B(O)O` [BORTEZOMIB], the “fold change (FC)” value (THP-1 [1]) was 0.4, the “fold change (FC)” value (THP-1 [2]) was 60 and the “fold change (FC)” value [3] was 0.9. For the same compound, the “fold change (FC)” value (RPMI-8226 [4]) was 5, the “fold change (FC)” value (THP-1 [5]) was 0.5 and the “fold change (FC)” value (SW1573) was 1.3. For the same compound, the “fold change (FC)” value (THP-1 [6]) was 0.6, the “fold change (FC)” value (THP-1 [7]) was 60 and the “fold change (FC)” value (THP-1 [8]) was 60. For the same compound, the “fold change (FC)” value (RPMI-8226 [9]) was 15, the “fold change (FC)” value (HT-29 [10]) was 3 and the “fold change (FC)” value (THP-1 [11]) was 60. For the same compound, the “fold change (FC)” value (HT-29 [12]) was 3, the “fold change (FC)” value (THP-1 [13]) was 0.9 and the “fold change (FC)” value [14] was 1.7.

For `CC(C)C[C@H](NC(=O)[C@H](CCc1ccccc1)NC(=O)CN1CCOCC1)C(=O)N[C@@H](Cc1ccccc1)C(=O)N[C@@H](CC(C)C)C(=O)[C@@]1(C)CO1` [CARFILZOMIB], the “Ratio IC50” value (RPMI-8226 [15]) was 9.7, the Ratio [16] was under 100 M⁻¹ s⁻¹ and the fold change (FC) (Homo sapiens) was 114. For the same compound, the Ratio [17] was under 100 M⁻¹ s⁻¹ and the Ratio [18] was 33000 M⁻¹ s⁻¹.

For `CC(C)C[C@H](NC(=O)[C@@H](NC(=O)c1cccc(-c2ccccc2)n1)[C@@H](C)O)B(O)O` [DELANZOMIB], the IC50 [19] was 3.5 nM.
